Key:
[1] = target: T1, trypsin (Bos taurus, UniProt P00760); assay: Inhibition of trypsin-catalyzed hydrolysis of BANA (percent BANA remaining vs. time); assay type: biochemical; conditions: pH 7.4, 37° C.; for Ability to inhibit trypsin (result in words): increasing concentrations, BANA substrate
T1 construct: gene PRSS1
T1 sequence (P00760 24-246): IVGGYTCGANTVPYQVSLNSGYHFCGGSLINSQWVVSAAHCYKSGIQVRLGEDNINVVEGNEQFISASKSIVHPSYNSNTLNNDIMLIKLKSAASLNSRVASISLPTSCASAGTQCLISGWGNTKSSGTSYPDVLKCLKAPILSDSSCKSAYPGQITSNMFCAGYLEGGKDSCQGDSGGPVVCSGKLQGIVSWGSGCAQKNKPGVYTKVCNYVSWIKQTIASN
Experimental: This example describes in vitro experiments with a compound of the disclosure to provide a mechanism of overdose protection.
The effect of increasing concentrations of compounds II-D-11, II-D-23, II-D-71c and II-D-71b on the rate and extent of the trypsin-catalyzed hydrolysis of a commercially available trypsin substrate Nα-Benzoyl-L-arginine 4-nitroanilide hydrochloride (BANA) was evaluated in the presence of trypsin (2,000 BAEE activity) in a pH 7.4 phosphate buffer at 37° C. in vitro. Both buffer solution alone (i.e. no trypsin) and trypsin containing buffer solution (i.e. no test compounds) controls were run contemporaneously.

[2] = target: T1, trypsin; assay: Trypsin inhibitory potency (key differentiating attributes, Table 5); assay type: biochemical
Source text: (§1) As mentioned previously, a wide range of targeted oral pharmacokinetic profiles can be achieved by administering pharmaceutical compositions containing specific combinations of different polysubunit molecules to subjects. For example, the different polysubunit molecules contained in the composition may differ with regard to (i) the specific opioid agonists delivered, (ii) the rates at which the opioid agonist is delivered in vivo (i.e. to modify the oral pharmacokinetic profile of the delivered opioid), and (iii) the combined inhibitory potency of the GI enzyme inhibiting subunits [i.e. to modify the overdose protection profile and/or the prescribed dose strengths of the delivered opioid agonist(s)]. Table 5 below provides non-limiting examples of compounds of the invention with their key differentiating attributes. Table 6 discusses scenarios and rationales for using the compounds presented in Table 5 in combination with each other, in useful pharmaceutical formulations of the invention.

[3] = Rate of release of opioid agonist (key differentiating attributes, Table 5); conditions: for Rate of Release of Opioid Against: in words (Fast/Slow); for half-life: read-out: Rate of Release of Opioid Against: T1/2
Source text: as §1

[4] = Hydrocodone and naltrexone release from II-D-71c-NTX in 0.5M aqueous NaOH at 60° C. (tampering); assay type: physicochemical; conditions: for Percent HC Released / Percent NTX Released: 60° C. incubation in 0.5M aqueous NaOH
Experimental: H-D-71c-NTX was incubated in a strongly basic solution of 0.5M aqueous sodium hydroxide at 60° C. for 300 minutes. The solution was analyzed for the presence of both hydrocodone and naltrexone at specified time points using LC/MS analysis. […] The data from this study is presented graphically in FIG. 2.

## COc1ccc2c3c1OC1C(OC(=O)N4CCC(C(=O)NCCCCC(NC(=O)OCc5ccccc5)C(=O)NCCOc5ccc(C(=O)Oc6ccc7cc(C(=N)N)ccc7c6)cc5)CC4CNC(=O)C(CCCNC(=N)N)NC(=O)CNC(C)=O)=CCC4C(C2)N(C)CCC314 [II-D-23]
[1]; 1 uM compound, 2 minutes
  Percent BANA remaining: 100%
[1]; 1 uM compound, 14 minutes
  Percent BANA remaining: 20%
[1]; 1 uM compound, 24 minutes
  Percent BANA remaining: 11%
[1]; 1 uM compound, 32 minutes
  Percent BANA remaining: 0%
[1]; 1 uM compound, 70 minutes
  Percent BANA remaining: 0%
[1]; 1 uM compound, 100 minutes
  Percent BANA remaining: 0%
[1]; 1 uM compound, 145 minutes
  Percent BANA remaining: 0%
[1]; 1 uM compound, 156 minutes
  Percent BANA remaining: 0%
[1]; 1 uM compound, 247 minutes
  Percent BANA remaining: 0%
[1]; 10 uM compound, 2 minutes
  Percent BANA remaining: 100%
[1]; 10 uM compound, 14 minutes
  Percent BANA remaining: 98%
[1]; 10 uM compound, 24 minutes
  Percent BANA remaining: 96%
[1]; 10 uM compound, 32 minutes
  Percent BANA remaining: 98%
[1]; 10 uM compound, 70 minutes
  Percent BANA remaining: 97%
[1]; 10 uM compound, 100 minutes
  Percent BANA remaining: 95%
[1]; 10 uM compound, 145 minutes
  Percent BANA remaining: 96%
[1]; 10 uM compound, 156 minutes
  Percent BANA remaining: 96%
[1]; 10 uM compound, 247 minutes
  Percent BANA remaining: 93%
[1]; 100 uM compound, 2 minutes
  Percent BANA remaining: 100%
[1]; 100 uM compound, 14 minutes
  Percent BANA remaining: 99%
[1]; 100 uM compound, 24 minutes
  Percent BANA remaining: 100%
[1]; 100 uM compound, 32 minutes
  Percent BANA remaining: 100%
[1]; 100 uM compound, 70 minutes
  Percent BANA remaining: 100%
[1]; 100 uM compound, 100 minutes
  Percent BANA remaining: 100%
[1]; 100 uM compound, 145 minutes
  Percent BANA remaining: 100%
[1]; 100 uM compound, 156 minutes
  Percent BANA remaining: 100%
[1]; 100 uM compound, 247 minutes
  Percent BANA remaining: 100%
[1]; 1 mM compound, 2 minutes
  Percent BANA remaining: 100%
[1]; 1 mM compound, 14 minutes
  Percent BANA remaining: 99%
[1]; 1 mM compound, 24 minutes
  Percent BANA remaining: 98%
[1]; 1 mM compound, 32 minutes
  Percent BANA remaining: 99%
[1]; 1 mM compound, 70 minutes
  Percent BANA remaining: 99%
[1]; 1 mM compound, 100 minutes
  Percent BANA remaining: 98%
[1]; 1 mM compound, 145 minutes
  Percent BANA remaining: 98%
[1]; 1 mM compound, 156 minutes
  Percent BANA remaining: 97%
[1]; 1 mM compound, 247 minutes
  Percent BANA remaining: 96%
[1]
  Ability to inhibit trypsin (result in words): progressively inhibit trypsin in a concentration dependent manner

## COc1ccc2c3c1OC1C(OC(=O)N(C)C(CNC(=O)[C@H](CCCNC(=N)N)NC(=O)CNC(C)=O)C(=O)NCCCC[C@H](NC(=O)OCc4ccccc4)C(=O)NCCOc4ccc(C(=O)Oc5cccc(NC(=N)N)c5)cc4)=CC[C@H]4[C@@H](C2)N(C)CC[C@]314 (stereo partly shown) [II-J-71b]
[2]
  Trypsin Inhibitory Potency: Low
[3]
  Rate of Release of Opioid Against: Slow
  half-life: ~3 h

## COc1ccc2c3c1OC1C(OC(=O)N(C)C(CNC(=O)[C@H](CCCNC(=N)N)NC(=O)CNC(C)=O)C(=O)NCCCC[C@H](NC(=O)OCc4ccccc4)C(=O)NCCOc4ccc(C(=O)Oc5ccc(NC(=N)N)cc5)cc4)=CC[C@H]4[C@@H](C2)N(C)CC[C@]314 (stereo partly shown) [II-J-71c]
[2]
  Trypsin Inhibitory Potency: High
[3]
  Rate of Release of Opioid Against: Slow
  half-life: ~3 h

## COc1ccc2c3c1OC1C(OC(=O)N4CCC(C(=O)NCCCCC(NC(C)=O)C(=O)NCCOc5ccc(C(=O)Oc6ccc7cc(C(=N)N)ccc7c6)cc5)CC4CNC(=O)C(CCCNC(=N)N)NC(=O)CNC(C)=O)=CCC4C(C2)N(C)CCC314 [II-D-11]
[1]; 1 uM compound, 2 minutes
  Percent BANA remaining: 100%
[1]; 1 uM compound, 13 minutes
  Percent BANA remaining: 39%
[1]; 1 uM compound, 24 minutes
  Percent BANA remaining: 0%
[1]; 1 uM compound, 80 minutes
  Percent BANA remaining: 0%
[1]; 1 uM compound, 102 minutes
  Percent BANA remaining: 0%
[1]; 1 uM compound, 119 minutes
  Percent BANA remaining: 0%
[1]; 1 uM compound, 234 minutes
  Percent BANA remaining: 0%
[1]; 10 uM compound, 2 minutes
  Percent BANA remaining: 100%
[1]; 10 uM compound, 13 minutes
  Percent BANA remaining: 98%
[1]; 10 uM compound, 24 minutes
  Percent BANA remaining: 96%
[1]; 10 uM compound, 80 minutes
  Percent BANA remaining: 94%
[1]; 10 uM compound, 102 minutes
  Percent BANA remaining: 93%
[1]; 10 uM compound, 119 minutes
  Percent BANA remaining: 94%
[1]; 10 uM compound, 234 minutes
  Percent BANA remaining: 87%
[1]; 100 uM compound, 2 minutes
  Percent BANA remaining: 100%
[1]; 100 uM compound, 13 minutes
  Percent BANA remaining: 98%
[1]; 100 uM compound, 24 minutes
  Percent BANA remaining: 100%
[1]; 100 uM compound, 80 minutes
  Percent BANA remaining: 99%
[1]; 100 uM compound, 102 minutes
  Percent BANA remaining: 99%
[1]; 100 uM compound, 119 minutes
  Percent BANA remaining: 99%
[1]; 100 uM compound, 234 minutes
  Percent BANA remaining: 99%
[1]; 1 mM compound, 2 minutes
  Percent BANA remaining: 100%
[1]; 1 mM compound, 13 minutes
  Percent BANA remaining: 100%
[1]; 1 mM compound, 24 minutes
  Percent BANA remaining: 99%
[1]; 1 mM compound, 80 minutes
  Percent BANA remaining: 100%
[1]; 1 mM compound, 102 minutes
  Percent BANA remaining: 100%
[1]; 1 mM compound, 119 minutes
  Percent BANA remaining: 100%
[1]; 1 mM compound, 234 minutes
  Percent BANA remaining: 100%
[1]
  Ability to inhibit trypsin (result in words): progressively inhibit trypsin in a concentration dependent manner

## COc1ccc2c3c1O[C@H]1C(OC(=O)N4CCC(C(=O)NCCCC[C@H](NC(=O)CCCN(C)C(=O)Oc5ccc6c7c5O[C@H]5C(=O)CC[C@@]8(O)[C@@H](C6)N(CC6CC6)CC[C@]758)C(=O)NCCNC(=O)Cc5ccc(OC(=O)c6ccc(NC(=N)N)cc6)cc5)CC4CNC(=O)[C@@H](CCCNC(=N)N)NC(=O)CNC(C)=O)=CC[C@H]4[C@@H](C2)N(C)CC[C@]314.O=C(O)C(F)(F)F.O=C(O)C(F)(F)F.O=C(O)C(F)(F)F.O=C(O)C(F)(F)F (stereo partly drawn) [II-D-71c-NTX]
[4]; 0.5M aqueous sodium hydroxide, 60° C., 300 minutes, LC/MS
  Release of hydrocodone and naltrexone on tampering (result in words): release of the opioid agonist (e.g. hydrocodone) occurs concomitantly with the release of the opioid antagonist
[4]; time 0 (minutes)
  Percent HC Released: 0%
  Percent NTX Released: 0%
[4]; time 5 (minutes)
  Percent HC Released: 2.52%
  Percent NTX Released: 1.44%
[4]; time 10 (minutes)
  Percent HC Released: 4.45%
  Percent NTX Released: 2.0%
[4]; time 15 (minutes)
  Percent HC Released: 6.27%
  Percent NTX Released: 2.95%
[4]; time 20 (minutes)
  Percent HC Released: 9.27%
  Percent NTX Released: 3.69%
[4]; time 30 (minutes)
  Percent HC Released: 13.99%
  Percent NTX Released: 6.47%
[4]; time 60 (minutes)
  Percent HC Released: 25.32%
  Percent NTX Released: 14.41%
[4]; time 120 (minutes)
  Percent HC Released: 37.9%
  Percent NTX Released: 37.81%
[4]; time 300 (minutes)
  Percent HC Released: 56.1%
  Percent NTX Released: 60.25%
